Results as given in PubChem BioAssay (NCI).
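A five-concentration, 48-hour dose response in 96-well plates underlies each endpoint, interpolated linearly between surrounding concentrations. GI50 is the concentration that inhibits growth by half. TGI marks complete inhibition of growth.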

Assays:
Experiment in all cases: growth of human tumour cells (NCI), 48 h
OVCAR-3 ovarian = system: OVCAR-3 ovarian
HL-60(TB) leukemia = system: HL-60(TB) leukemia
M14 melanoma = system: M14 melanoma
RXF 393 renal = system: RXF 393 renal
786-0 renal = system: 786-0 renal
NCI-H23 lung = system: NCI-H23 lung
NCI-H226 lung = system: NCI-H226 lung
SNB-75 CNS = system: SNB-75 CNS
UACC-62 melanoma = system: UACC-62 melanoma
UACC-257 melanoma = system: UACC-257 melanoma
OVCAR-4 ovarian = system: OVCAR-4 ovarian
CAKI-1 renal = system: CAKI-1 renal
LOX IMVI melanoma = system: LOX IMVI melanoma
MDA-MB-231 breast = system: MDA-MB-231 breast
TK-10 renal = system: TK-10 renal
HS 578T breast = system: HS 578T breast
SK-MEL-5 melanoma = system: SK-MEL-5 melanoma
A498 renal = system: A498 renal
MALME-3M melanoma = system: MALME-3M melanoma
DU-145 prostate = system: DU-145 prostate
HT29 colon = system: HT29 colon
CCRF-CEM leukemia = system: CCRF-CEM leukemia
NCI-H460 lung = system: NCI-H460 lung
SN12C renal = system: SN12C renal
PC-3 prostate = system: PC-3 prostate
HOP-92 NSCLC = system: HOP-92 NSCLC
HOP-62 NSCLC = system: HOP-62 NSCLC
SF-539 CNS = system: SF-539 CNS
MOLT-4 leukemia = system: MOLT-4 leukemia
IGROV1 ovarian = system: IGROV1 ovarian
SF-268 CNS = system: SF-268 CNS
U251 CNS = system: U251 CNS
BT-549 breast = system: BT-549 breast
EKVX NSCLC = system: EKVX NSCLC
NCI/ADR-RES ovarian = system: NCI/ADR-RES ovarian
HCT-15 colon = system: HCT-15 colon
HCC-2998 colon = system: HCC-2998 colon
MDA-MB-435 = system: MDA-MB-435
SR leukemia = system: SR leukemia
ACHN renal = system: ACHN renal
UO-31 renal = system: UO-31 renal
SK-MEL-2 melanoma = system: SK-MEL-2 melanoma
OVCAR-8 ovarian = system: OVCAR-8 ovarian
SK-OV-3 ovarian = system: SK-OV-3 ovarian
COLO 205 colon = system: COLO 205 colon
RPMI-8226 leukemia = system: RPMI-8226 leukemia
NCI-H522 lung = system: NCI-H522 lung
SW-620 colon = system: SW-620 colon
T-47D breast = system: T-47D breast
KM12 colon = system: KM12 colon
SNB-19 CNS = system: SNB-19 CNS
OVCAR-5 ovarian = system: OVCAR-5 ovarian
A549 NSCLC = system: A549 NSCLC
HCT-116 colon = system: HCT-116 colon
MCF7 breast = system: MCF7 breast
SF-295 CNS = system: SF-295 CNS
SK-MEL-28 melanoma = system: SK-MEL-28 melanoma

SMILES: O=C(O)c1ccc(NCc2nc3cc(Cl)c(Cl)cc3[nH]2)cc1
- GI50 (OVCAR-3 ovarian): 60.7 µM
- TGI (OVCAR-3 ovarian): > 100 µM
- GI50 (HL-60(TB) leukemia): > 100 µM
- TGI (HL-60(TB) leukemia): > 100 µM
- GI50 (M14 melanoma): > 100 µM
- TGI (M14 melanoma): > 100 µM
- GI50 (RXF 393 renal): > 100 µM
- TGI (RXF 393 renal): > 100 µM
- GI50 (786-0 renal): > 100 µM
- TGI (786-0 renal): > 100 µM
- GI50 (NCI-H23 lung): > 100 µM
- TGI (NCI-H23 lung): > 100 µM
- GI50 (NCI-H226 lung): > 100 µM
- TGI (NCI-H226 lung): > 100 µM
- GI50 (SNB-75 CNS): > 100 µM
- TGI (SNB-75 CNS): > 100 µM
- GI50 (UACC-62 melanoma): > 100 µM
- TGI (UACC-62 melanoma): > 100 µM
- GI50 (UACC-257 melanoma): 5.28 µM
- TGI (UACC-257 melanoma): 77.6 µM
- GI50 (OVCAR-4 ovarian): 40.9 µM
- TGI (OVCAR-4 ovarian): > 100 µM
- GI50 (CAKI-1 renal): > 100 µM
- TGI (CAKI-1 renal): > 100 µM
- GI50 (LOX IMVI melanoma): > 100 µM
- TGI (LOX IMVI melanoma): > 100 µM
- GI50 (MDA-MB-231 breast): > 100 µM
- TGI (MDA-MB-231 breast): > 100 µM
- GI50 (TK-10 renal): > 100 µM
- TGI (TK-10 renal): > 100 µM
- GI50 (HS 578T breast): > 100 µM
- TGI (HS 578T breast): > 100 µM
- GI50 (SK-MEL-5 melanoma): 93.4 µM
- TGI (SK-MEL-5 melanoma): > 100 µM
- GI50 (A498 renal): > 100 µM
- TGI (A498 renal): > 100 µM
- GI50 (MALME-3M melanoma): 0.424 µM
- TGI (MALME-3M melanoma): 1.69 µM
- GI50 (DU-145 prostate): > 100 µM
- TGI (DU-145 prostate): > 100 µM
- GI50 (HT29 colon): > 100 µM
- TGI (HT29 colon): > 100 µM
- GI50 (CCRF-CEM leukemia): > 100 µM
- TGI (CCRF-CEM leukemia): > 100 µM
- GI50 (NCI-H460 lung): > 100 µM
- TGI (NCI-H460 lung): > 100 µM
- GI50 (SN12C renal): > 100 µM
- TGI (SN12C renal): > 100 µM
- GI50 (PC-3 prostate): > 100 µM
- TGI (PC-3 prostate): > 100 µM
- GI50 (HOP-92 NSCLC): > 100 µM
- TGI (HOP-92 NSCLC): > 100 µM
- GI50 (HOP-62 NSCLC): > 100 µM
- TGI (HOP-62 NSCLC): > 100 µM
- GI50 (SF-539 CNS): > 100 µM
- TGI (SF-539 CNS): > 100 µM
- GI50 (MOLT-4 leukemia): > 100 µM
- TGI (MOLT-4 leukemia): > 100 µM
- GI50 (IGROV1 ovarian): > 100 µM
- TGI (IGROV1 ovarian): > 100 µM
- GI50 (SF-268 CNS): > 100 µM
- TGI (SF-268 CNS): > 100 µM
- GI50 (U251 CNS): > 100 µM
- TGI (U251 CNS): > 100 µM
- GI50 (BT-549 breast): > 100 µM
- TGI (BT-549 breast): > 100 µM
- GI50 (EKVX NSCLC): > 100 µM
- TGI (EKVX NSCLC): > 100 µM
- GI50 (NCI/ADR-RES ovarian): > 100 µM
- TGI (NCI/ADR-RES ovarian): > 100 µM
- GI50 (HCT-15 colon): 96.9 µM
- TGI (HCT-15 colon): > 100 µM
- GI50 (HCC-2998 colon): 72.3 µM
- TGI (HCC-2998 colon): > 100 µM
- GI50 (MDA-MB-435): > 100 µM
- TGI (MDA-MB-435): > 100 µM
- GI50 (SR leukemia): 69.6 µM
- TGI (SR leukemia): > 100 µM
- GI50 (ACHN renal): > 100 µM
- TGI (ACHN renal): > 100 µM
- GI50 (UO-31 renal): > 100 µM
- TGI (UO-31 renal): > 100 µM
- GI50 (SK-MEL-2 melanoma): 5.5 µM
- TGI (SK-MEL-2 melanoma): 41.6 µM
- GI50 (OVCAR-8 ovarian): > 100 µM
- TGI (OVCAR-8 ovarian): > 100 µM
- GI50 (SK-OV-3 ovarian): > 100 µM
- TGI (SK-OV-3 ovarian): > 100 µM
- GI50 (COLO 205 colon): > 100 µM
- TGI (COLO 205 colon): > 100 µM
- GI50 (RPMI-8226 leukemia): > 100 µM
- TGI (RPMI-8226 leukemia): > 100 µM
- GI50 (NCI-H522 lung): 66.2 µM
- TGI (NCI-H522 lung): > 100 µM
- GI50 (SW-620 colon): > 100 µM
- TGI (SW-620 colon): > 100 µM
- GI50 (T-47D breast): > 100 µM
- TGI (T-47D breast): > 100 µM
- GI50 (KM12 colon): > 100 µM
- TGI (KM12 colon): > 100 µM
- GI50 (SNB-19 CNS): > 100 µM
- TGI (SNB-19 CNS): > 100 µM
- GI50 (OVCAR-5 ovarian): > 100 µM
- TGI (OVCAR-5 ovarian): > 100 µM
- GI50 (A549 NSCLC): > 100 µM
- TGI (A549 NSCLC): > 100 µM
- GI50 (HCT-116 colon): > 100 µM
- TGI (HCT-116 colon): > 100 µM
- GI50 (MCF7 breast): 6.03 µM
- TGI (MCF7 breast): > 100 µM
- GI50 (SF-295 CNS): > 100 µM
- TGI (SF-295 CNS): > 100 µM
- GI50 (SK-MEL-28 melanoma): 3.77 µM
- TGI (SK-MEL-28 melanoma): > 100 µM
